Data as given in ChEMBL document CHEMBL1131515, “2-Substituted-4-methoxybenzimidazole-based PDE4 inhibitors” (Bioorg Med Chem Lett, 1998).

Assays:
[1] = Inhibition of Rolipram binding to PDE4
[2] = biological target: Phosphodiesterase 4 (Cavia porcellus); assay: Inhibition of PDE4 from guinea pig macrophages
[3] = Compound was evaluated for its bioavailability in mice at a dose of 1 mg/kg; format: ADME, organism-based; settings: mouse, in vivo
[4] = Rapid plasma clearance of compound was determined; format: ADME
Mus musculus = species: Mus musculus; assay: Inhibition of lipopolysaccharide (LPS) stimulated TNF-alpha release in mice after peroral dose; format: functional; settings: po
Rattus norvegicus [5] = species: Rattus norvegicus; assay: Inhibition of streptococcal cell wall(SCW) induced arthritis in rat on peroral dose; format: functional; settings: po
[6] = biological target: Phosphodiesterase 4 (Cavia porcellus); assay: Inhibition of Phosphodiesterase 4 (PDE4) from guinea pig macrophages
[7] = Bioavailability in mouse; format: ADME, organism-based; settings: in vivo
Phosphodiesterase 4 = Phosphodiesterase 4 (Homo sapiens, UniProt P27815+Q08499+Q07343+Q08493); assay: Inhibition of Phosphodiesterase 4 (PDE4) from guinea pig macrophages; format: protein assay, Cavia porcellus; settings: target entry is the homologue from another species
Rattus norvegicus [8] = species: Rattus norvegicus; assay: Inhibition of streptococcal cell wall(SCW) induced arthritis in rat; format: functional

Row | SMILES | Ki [1] [nM] | IC50 [2] [nM] | also measured
1 | COc1ccc(C(=O)Nc2c(Cl)cncc2Cl)c2c1nc(C1CCCC1)n2C | 340 | 540 | 
2 | COCc1nc2c(OC)ccc(C(=O)Nc3c(Cl)c[n+]([O-])cc3Cl)c2[nH]1 | 45 |  | bioavailability [3]: 87%; half-life [4]: 2.5 h; ED50 (Mus musculus): 7 mg/kg; ED50 (Rattus norvegicus [5]): 5 mg/kg; IC50 [6]: 45 nM
3 | COc1ccc(C(=O)Nc2c(Cl)cncc2Cl)c2[nH]c(C(C)C)nc12 | 24 | 27 | bioavailability [7]: 16%; ED50 (Mus musculus): 10 mg/kg
4 | COc1ccc(C(=O)Nc2c(Cl)cncc2Cl)c2[nH]c(C)nc12 | 712 | 450 | 
5 | COc1ccc(C(=O)Nc2c(Cl)cncc2Cl)c2[nH]c(Cc3ccccc3)nc12 | 75 | 25 | 
6 | OCCN(CCO)c1nc(N2CCCCC2)c2nc(N(CCO)CCO)nc(N3CCCCC3)c2n1 [DIPYRIDAMOLE] |  |  | IC50 (Phosphodiesterase 4): 500 nM
7 | COc1ccc(C(=O)Nc2c(Cl)cncc2Cl)c2[nH]c(C3CCCC3)nc12 | 540 | 100 | 
8 | COc1ccc(C(=O)Nc2c(Cl)cncc2Cl)c2[nH]c(CCc3ccccc3)nc12 | 56 | 23 | 
9 | COc1ccc(C(=O)Nc2c(Cl)cncc2Cl)cc1OC1CCCC1 | 1 |  | bioavailability [7]: < 5%
10 | COc1ccc(C(=O)Nc2c(Cl)cncc2Cl)c2nc(C3CCCC3)n(C)c12 | 10000 | 4400 | 
11 | COCc1nc2c(OC)ccc(C(=O)Nc3c(Cl)cncc3Cl)c2[nH]1 | 25 |  | bioavailability [7]: 35%; ED50 (Mus musculus): 2 mg/kg; ED50 (Rattus norvegicus [8]): 10 mg/kg
12 | COc1ccc(C(=O)Nc2c(Cl)cncc2Cl)c2[nH]c(C3CC3)nc12 | 1 | 2 | 
13 | COc1ccc(C(=O)Nc2c(Cl)c[n+]([O-])cc2Cl)c2[nH]c(C(C)C)nc12 | 24 |  | IC50 [6]: 28 nM
